Reference: patent US9273006B2, “Anabolic compounds for treating and preventing bone loss diseases” (SYDDANSK UNIVERSITET, priority 2012, dated 2016)
pIC50: −log10 of the molar value. Where two headings read alike, the source gives them in different places.

Assays:
[1] = test system: human adipose tissue derived MSC (hAT-MSC); assay: In vitro osteoblast differentiation (ALP activity, alizarin red); type: cell-based
[2] = test system: primary human bone marrow derived MSC (hBMSC); assay: In vitro osteoblast differentiation in OIM (ALP activity, alizarin red); type: cell-based; settings: dose range 1-30 μM
Method: (§1) F) H-8 enhances ALP activity of hMSC, in the absence of serum.
(§2) In order to confirm the results obtained from the initial screen, the present inventors incubated hMSC-TERT and primary human bone marrow derived MSC (hBMSC) in osteogenic induction medium (OIM) supplemented with H-8 (dose range 1-30 μM) or vehicle. […] To determine the stage of differentiation at which the effect of H-8 was most apparent, the present inventors added H-8 (25 μM) to the OIM at different time points during 12-days period.

[3] = target: T1, protein kinase G (PKG) (Homo sapiens, UniProt Q13976); settings: cited from earlier work
T1 sequence (Q13976 1-671): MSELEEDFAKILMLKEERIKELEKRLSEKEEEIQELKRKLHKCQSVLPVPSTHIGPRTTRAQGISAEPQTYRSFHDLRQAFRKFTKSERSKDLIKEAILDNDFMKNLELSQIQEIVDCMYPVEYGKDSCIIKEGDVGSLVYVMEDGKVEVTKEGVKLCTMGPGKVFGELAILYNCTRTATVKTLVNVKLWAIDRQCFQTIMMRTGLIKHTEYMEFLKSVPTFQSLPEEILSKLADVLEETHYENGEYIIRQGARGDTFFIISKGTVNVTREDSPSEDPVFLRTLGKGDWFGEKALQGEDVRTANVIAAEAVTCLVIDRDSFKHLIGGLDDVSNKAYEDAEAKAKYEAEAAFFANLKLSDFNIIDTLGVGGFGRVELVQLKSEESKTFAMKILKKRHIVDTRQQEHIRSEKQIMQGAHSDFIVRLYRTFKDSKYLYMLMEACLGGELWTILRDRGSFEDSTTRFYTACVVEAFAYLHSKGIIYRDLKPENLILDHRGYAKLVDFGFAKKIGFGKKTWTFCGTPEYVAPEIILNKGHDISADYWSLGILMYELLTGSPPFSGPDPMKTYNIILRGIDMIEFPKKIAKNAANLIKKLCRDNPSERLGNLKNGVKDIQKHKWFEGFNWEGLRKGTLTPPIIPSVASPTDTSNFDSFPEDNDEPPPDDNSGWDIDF

[4] = test system: hMSC; assay: hMSC survival in vitro, western blot of activated Caspase-3; type: cell-based, human; settings: 25 μM, during osteoblast differentiation
Method: A) H-8 treatment of hMSC (25 μM) during osteoblast differentiation, decreased apoptosis, as shown by western blot analysis of activated Caspase-3.
To investigate the effect of H-8 on hMSC survival in vitro, activation of Caspase-3 was evaluated, using western blot analysis.

[5] = test system: TGFβ signaling in hMSC; assay: TGFβ signaling, qRT-PCR and western blot; type: cell-based, human; settings: 5 and 15 minutes after treatment
Source text: (C): Western blot analysis of p-Smad and p-Akt reveled that the enahcing effect of H-8 on osteoblast differentiation of hMSC is mediated through activation of non-canonical TGFβ signaling. (D): SB431542, a selective inhibitor of TGWU activity abolished the enhanced phosphorylation of Akt and smad2 after H-8 treatment.
To investigate the mechanisms of the enhancing effects of H-8 on osteoblast differentiation of hMSC, the present inventors performed a DNA microarray analysis of hMSC-TERT under osteogenic culture conditions, in the presence or absence of the H-8 (25 μM). […] In order to identify the pathway that is primarily regulated by H-8 treatment, phosphorylation of canonical and non-canonical TGFβ signaling components was evaluated 5 minutes and 15 minutes after H-8 treatment. The inventors also evaluated the effect of TGFβ3 treatment on H-8 induced phosphorylation of Smad2 and Akt. […] This observation further confirms that the enhancing effect of H-8 on osteoblast differentiation of hMSC is mediated through regulation of TGFβ signaling.

[6] = test system: hMSC-TERT; assay: Adipocyte differentiation (Oil red O, qRT-PCR of adipogenic markers); type: cell-based, human; settings: 25 μM in adipogenic induction media; Oil red O day 15, qRT-PCR day 10
Method: To determine the effect of H-8 on adipocyte differentiation of hMSC, H-8 was added (25 μM) to the adipogenic induction media (AIM) of hMSC-TERT.

[7] = target: protein kinase C(PKC); settings: cited from earlier work
[8] = test system: hMSC-TERT; assay: In vitro osteoblast differentiation in OIM (ALP activity, alizarin red, qRT-PCR); type: cell-based, human
Method: as §1
Adding H-8 (25 μM) to the osteogenic induction media, during 9-days in vitro hMSC osteogenic differentiation, enhanced expression of osteoblastic markers as shown by qRT-PCR analysis. **P≦0.05, ***P≦0.005 (significant difference as compared to vehicle).
H-8 was added (25 μM) to the OIM at different time points during 12-days period.
as §2

[9] = test system: hMSC implanted in mouse calvarial defect; assay: hMSC survival in vivo, mouse calvarial defect model; settings: 4 weeks after implantation of treated hMSC
[10] = test system: hMSC-TERT; settings: 6 days after induction, hMSC-TERT
[11] = test system: osteoclast; settings: table 1 of Soerensen et al; cited from earlier work
[12] = Necropsy after systemic H-8 injection; type: in vivo; settings: systemic injection 5, 15, 30 mg/kg/day for 4 weeks
[13] = test system: human CD14+ mononuclear cells; assay: Osteoclast formation, count of TRAP-positive multinucleated cells; type: cell-based; settings: 25 μM, day 5 of differentiation
Source text: The present inventors determined the effects of H-8 on osteoclast formation in peripheral blood-derived human CD14+ mononuclear cell cultures.

[14] = test system: hMSC-TERT implants in SCID/NOD mice; assay: In vivo heterotopic bone formation of hMSC-TERT implanted with HA/TCP
Method: (A) Treatment of hMSC-TERT4 with H-8 (25 μM) for 7 days in vitro enhanced the in vivo heterotopic bone formation ability of the cells. (B) Systemic injection of H-8 at 30 mg/kg/day enhanced the amount of the heterotopic bone formed by hMSC-TERT4 implanted in SCID/NOD mice. (C) Human specific Vimentin staining confirmed that the newly formed heterotopic bone is of human origin. *P≦0.05 (significant difference as compared to vehicle).
To determine the effect of H-8 treatment on the ability of hMSC to form heterotopic bone in vivo, hMSC-TERT were treated with H-8 (25 μM) or vehicle for 7 days, mixed with hydroxyapatite/tricalcium phosphate (HA/TCP) as osteoconductive carrier, and implanted subcutaneously in SCID/NOD mice. […] Human specific vimentin staining confirmed that the newly formed heterotopic bone is of human origin (FIG. 6C).

[15] = target: Myosin Light Chain Kinase (MLCK) (Homo sapiens, UniProt Q15746); settings: cited from earlier work
Myosin Light Chain Kinase (MLCK), sequence (Q15746 whole entry): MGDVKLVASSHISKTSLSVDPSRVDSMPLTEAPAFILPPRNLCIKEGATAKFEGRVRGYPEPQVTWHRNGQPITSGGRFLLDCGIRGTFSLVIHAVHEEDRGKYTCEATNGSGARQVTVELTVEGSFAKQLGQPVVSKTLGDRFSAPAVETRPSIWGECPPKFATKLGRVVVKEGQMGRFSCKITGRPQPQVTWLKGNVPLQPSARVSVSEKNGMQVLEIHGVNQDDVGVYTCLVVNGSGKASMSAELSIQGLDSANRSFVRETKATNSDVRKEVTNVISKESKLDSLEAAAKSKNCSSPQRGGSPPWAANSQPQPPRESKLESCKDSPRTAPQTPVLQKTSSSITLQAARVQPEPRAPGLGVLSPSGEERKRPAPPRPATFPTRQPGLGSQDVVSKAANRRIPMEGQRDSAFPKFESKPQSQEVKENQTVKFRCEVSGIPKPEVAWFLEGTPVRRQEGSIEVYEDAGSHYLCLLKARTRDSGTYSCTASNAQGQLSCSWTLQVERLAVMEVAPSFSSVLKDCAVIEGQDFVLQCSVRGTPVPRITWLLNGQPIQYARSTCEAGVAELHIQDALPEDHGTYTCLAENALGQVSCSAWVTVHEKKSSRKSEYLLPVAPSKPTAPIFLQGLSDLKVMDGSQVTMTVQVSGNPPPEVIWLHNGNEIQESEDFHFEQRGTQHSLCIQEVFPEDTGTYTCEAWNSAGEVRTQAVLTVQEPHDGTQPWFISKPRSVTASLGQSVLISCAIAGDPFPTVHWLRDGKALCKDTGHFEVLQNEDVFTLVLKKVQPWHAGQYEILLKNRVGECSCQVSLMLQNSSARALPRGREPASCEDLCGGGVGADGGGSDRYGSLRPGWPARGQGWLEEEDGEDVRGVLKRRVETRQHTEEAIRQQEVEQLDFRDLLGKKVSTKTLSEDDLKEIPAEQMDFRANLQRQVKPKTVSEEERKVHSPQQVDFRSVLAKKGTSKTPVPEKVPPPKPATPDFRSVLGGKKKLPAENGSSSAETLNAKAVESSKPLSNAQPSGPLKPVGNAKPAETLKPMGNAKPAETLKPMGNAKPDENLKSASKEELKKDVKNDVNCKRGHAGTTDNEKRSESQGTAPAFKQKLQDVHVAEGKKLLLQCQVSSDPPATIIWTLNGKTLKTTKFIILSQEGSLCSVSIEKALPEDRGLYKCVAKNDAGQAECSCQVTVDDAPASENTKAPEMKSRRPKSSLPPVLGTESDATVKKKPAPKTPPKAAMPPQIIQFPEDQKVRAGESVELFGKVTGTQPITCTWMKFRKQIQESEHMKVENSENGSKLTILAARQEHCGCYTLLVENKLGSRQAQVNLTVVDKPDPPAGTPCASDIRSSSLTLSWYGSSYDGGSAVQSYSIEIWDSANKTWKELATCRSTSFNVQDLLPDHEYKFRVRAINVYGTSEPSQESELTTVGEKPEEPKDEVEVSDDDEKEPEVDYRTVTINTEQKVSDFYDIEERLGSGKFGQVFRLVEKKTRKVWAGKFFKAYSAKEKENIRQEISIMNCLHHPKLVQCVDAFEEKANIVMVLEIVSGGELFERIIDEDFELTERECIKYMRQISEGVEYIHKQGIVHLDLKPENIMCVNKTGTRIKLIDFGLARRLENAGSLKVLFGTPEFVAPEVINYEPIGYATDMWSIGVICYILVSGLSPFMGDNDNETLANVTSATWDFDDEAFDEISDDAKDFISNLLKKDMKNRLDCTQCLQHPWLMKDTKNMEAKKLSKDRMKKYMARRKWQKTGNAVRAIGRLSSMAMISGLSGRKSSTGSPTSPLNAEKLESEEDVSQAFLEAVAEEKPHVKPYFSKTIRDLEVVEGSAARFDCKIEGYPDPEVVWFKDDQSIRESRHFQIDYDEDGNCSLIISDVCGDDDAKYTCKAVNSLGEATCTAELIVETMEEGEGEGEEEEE

Structure (SMILES): CNCCNS(=O)(=O)c1cccc2cnccc12 [H-8, N-[2-(methylamino)ethyl]-5-isoquinolinesulfonamide]
- matrix mineralization (alizarin red staining) ([1]; 25 μM, day 10 of differentiation): enhanced matrix mineralization
- ALP activity ([1]; day 6 of osteoblastic differentiation): dose dependent enhancing effect
- ALP activity ([2]; day 6, dose-dependent): significantly increased
- matrix mineralization (alizarin red staining) ([2]; day 12, dose-dependent): significantly increased
- pIC50 [3]: 6.32
- activated Caspase-3 (western blot), hMSC survival [4]: reduced level of activated Caspase-3
- Akt phosphorylation (western blot) [5]: enhanced Akt phosphorylation at both 5 and 15 minutes
- Smad2 phosphorylation (western blot) [5]: enhanced Smad2 phosphorylation was detected only 15 minutes after H-8 treatment
- adipocyte differentiation of hMSC [6]: does not affect adipocyte differentiation
- pIC50 [7]: 4.82
- stage of differentiation at which H-8 is needed (matrix mineralization) ([8]; 25 μM added at different time points during 12-days period): needed during the first 9 days to exert its effects
- gene expression of osteogenic markers (qRT-PCR) ([8]; 25 μM, 9-days in vitro hMSC osteogenic differentiation): enhanced gene expression of early and late osteogenic markers
- ALP enhancing effect in serum free induction media ([8]; 25 μM, serum free induction media): persists in the absence of serum
- optimal concentration for highest enhancement of osteoblast differentiation of hMSC ([8]; based on in vitro studies): 20 to 30 µM
- dependence of ALP enhancing effect on differentiation inducers ([8]; each component of osteoblastic induction media removed): not dependent on differentiation inducers
- ALP activity ([8]; hMSC-TERT, OIM, dose range 1-30 μM, day 6, dose-dependent): significantly increased
- matrix mineralization (alizarin red staining) ([8]; hMSC-TERT, OIM, dose range 1-30 μM, day 12, dose-dependent): significantly increased
- hMSC survival in vivo (luminescent imaging) [9]: increased hMSC survival
- Relative ALP activity ([10]; 1 μM inhibitor in osteogenic inducing media): 1.701
- Relative ALP activity ([10]; 10 μM inhibitor in osteogenic inducing media): 1.87
- osteoclastic acid secretion [11]: no effect on osteoclastic acid secretion
- necropsy, toxic effects [12]: all tissues looked normal
- osteoclast formation (TRAP-positive multinucleated cells) [13]: did not affect osteoclast formation
- heterotopic bone formation, cells pre-treated in vitro ([14]; hMSC-TERT treated 25 μM for 7 days, implanted subcutaneously, histology after 8 weeks): enhanced amount of heterotopic bone formation
- heterotopic bone formation, systemic treatment ([14]; intraperitoneally 30 mg/kg/day for 4 weeks after implantation of HA/TCP-hMSC-TERT): increased amount of heterotopic bone formation
- pIC50 [15]: 4.17
